# Laboratory results: US20020098186A1, “Use of endothelin inhibitors for treatment or prevention of fibrotic disorders” (priority 1999, published 2002)
# Experiments:
# procollagen α1(I) RNA = assay: Multiprobe RNAse protection assay of liver RNA, procollagen α1(I); assay type: in vivo, rat; settings: BDO rats, LU 80 mg/kg/d for 6 weeks; relative to GAPDH; p<0.05
# Description: Plasmids encoded predescribed regions of the rat procollagen α1 (I) and […] (GAPDH) genes, encompassing 230 bp (Bam HI/Rsal sites) and 102 bp (position 335-437), resp. (44, 45). The rat tissue inhibitor of metalloproteinase-1 (TIMP-1) probe (position 176-439) was prepared by RT-PCR according to the published sequence (J. P. Iredale, R. C. Benyon, M. J. P. Arthur (1996). Hepatology 24:176-184.), cloned into pZErO-1 (Invitrogen, San Diego, Calif., U.S.A.) and confirmed by restriction enzyme analysis. Preparation of riboprobes: The cDNA templates were linearized with appropriate restriction endonucleases. […] Riboprobes were purified by electrophoresis through a denaturing polyacrylamide gel and the radioactivity of eluted probes were measured by liquid scintillation counting. […] Autoradiographic signals were analyzed with the public domain NTH Image Program. The procollagen α1(I) and TIMP-1 RNA signals were normalized to the signal of GAPDH RNA and expressed as relative abundance (arbitrary units). 10 liver samples each of negative controls, of untreated rats with BDO and of rats with BDO that received LU at 80 mg/kg/d were analyzed.
# [1] = Tolerability in BDO and sham-operated rats (death, renal toxicity, food consumption, measured parameters); assay type: in vivo
# Description: Female adult wistar rats, average weight 206±19 g, underwent the following microsurgical procedure under an operating microscope (OPMI 6-2, Zeiss, Germany) (B. Gerling, M. Becker, J. Waldschmidt, D. Schuppan (1996). J. Hepatol. 25:79-84; G. Boigk, L. Stroedter, H. Herbst H, et al. (1997). Hepatology 26:643-639.): 1. midline abdominal incision following anaesthesia with 100 mg/kg ketamine-hydroochloride (Ketanest®, Parke-Davis, Germany) and 10 mg/kg 5,6-dihydro-2-(2,6-xylidino)-4H-1,3-thiazine-hydrochloride (Rompun®, Bayer, Germany); 2. dissection of the common bile duct, insertion of a teflon catheter (Abbocath -T 26 G, venisystems, U.S.A.) and placement of a distal complete and a proximal incomplete ligature with 5-0 silk (Permahand , Ethicon, Germany); 3. retrograde injection of sodium-amidotrizoate (Ethibloc®, Ethicon Germany) at a dose of 0.02 ml/100 g body weight; 4. removal of the catheter, closure of the proximal ligature, scission of the bile duct between the ligatures and wound closure. After bile duct occlusion (BDO), animals received normal chow (Altromin®, Lage, Germany) and were allowed free access to water. […] The following therapeutic groups were formed: 1. BDO and LU at 80 mg/kg/d for 6 weeks (BDO 80/1-6:n=20); 2. BDO and LU at 80 mg/kg/d from week 4-6 of BDO (BDO 80/4-6:n=20); 3. BDO and LU at 10 mg/kg/d (sham 80/ 1-6:n=10), rats without medication (control: n=10) and bile duct occluded animals without treatment for 6 weeks (BDO: n=20) served as controls.
# Early mortality (within 1 h to 3 days) in rats with BDO was due to local infection and amounted to 9%. […] After 6 weeks rats were sacrificed under ketanest(rompun-anaesthesia by puncture of the right ventricle and exsanguination. Heart, liver, spleen and kidneys were weighed, and 1-2 g pieces of the left and the right liver lobes fixed in 4% formalin for histology and hydroxyproline (HYP) determinations.
# Rats with sham operation and rats with BDO were fed the oral endothelin A receptor antagonist LU 135252 (LU).
# However, liver collagen (both as relative and total liver collagen content), which was increased 6- and 12-fold above normal, resp., in the untreated group with BDO, was reduced by 50-55% in rats on 80 mg LU/kg/d over the 6 weeks of BDO (p<0.001) (FIG. 1). […] Since contrary to the sham-operated rats, LU at 80 mg/kg/d which represents a high dose, caused death dose-dependently due to rental tubular necrosis in 50% and 25% of the two treatment groups, resp., a second experiment with a lower dose (10 mg/kg/d) over 6 weeks of BDO was performed.
structure (smiles),measurement,setting,value
COc1cc(OC)nc(O[C@H](C(=O)O)C(OC)(c2ccccc2)c2ccccc2)n1 [LU],Reduction of procollagen α1(I) mRNA level,procollagen α1(I) RNA,35%
same,Death or renal toxicity,"[1]; BDO rats, 10 mg/kg/d over 6 weeks",no death or renal toxicity was observed
same,Death due to renal tubular necrosis (share of treatment group),"[1]; BDO rats, LU 80 mg/kg/d for 6 weeks",50%
same,Death due to renal tubular necrosis (share of treatment group),"[1]; BDO rats, LU 80 mg/kg/d from week 4-6",25%
same,Food consumption by the animals,[1]; LU mixed with the chow,did not alter food consumption
same,"Measured parameters (body and organ weights, liver collagen, liver histology, clinical chemical values)","[1]; sham-operated rats, LU 80 mg/kg/d for 6 weeks",did not alter any of the measured parameters
